PMC9127750, “Structure-based design of CDC42 effector interaction inhibitors for the treatment of cancer” (Cell reports, 2022)

System: WM3248 melanoma cells, 486 antibodies
Experiment: Reverse phase protein arrays (RPPA);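 for Cyclin.B1.R.V RPPA level: ratio of treated to vehicle (0 µM) normalized linear protein signal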;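 for Cyclin.E1.R.V RPPA level: ratio of treated to vehicle (0 µM) normalized linear protein signal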;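 for DDB.1.R.V RPPA level: ratio of treated to vehicle (0 µM) normalized linear protein signal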;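 for RPPA ACC1.R.C: ratio of treated to vehicle (0 µM) normalized linear protein signal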;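 for RPPA ASNS.R.V: ratio of treated to vehicle (0 µM) normalized linear protein signal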;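 for RPPA AceCS1.R.V: ratio of treated to vehicle (0 µM) normalized linear protein signal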;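 for RPPA Akt1.R.V: ratio of treated to vehicle (0 µM) normalized linear protein signal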;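 for RPPA Atg5.R.C: ratio of treated to vehicle (0 µM) normalized linear protein signal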;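 for RPPA Bim.R.V: ratio of treated to vehicle (0 µM) normalized linear protein signal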
Type: cell-based, Human
Conditions: 20 uM, Average
Text: Pellets were snap frozen in liquid nitrogen and shipped to MD Anderson Cancer Center core RPPA facility for RPPA analysis (Table S5). Three biological replicates for each sample were generated.
Nomenclatures on the RPPA heatmaps: name_of_antibody.species_of_antibody.status_of_antibody. V - antibody validated; C - validation of antibody in progress; Q - antibody nonspecific; E – under evaluation; antibodies raised in M - mouse, G - goat, R - rabbit, or T - rat.

CN(C)c1cccc(Nc2cc(-c3ccccc3)nc(C3CCNCC3)n2)c1 [ARN22089, N1,N1-dimethyl-N3-(6-phenyl-2-(piperidin-4-yl)pyrimidin-4-yl)benzene-1,3-diamine]
Caspase.8.cleaved.R.C RPPA level: 1.025 | Caveolin.1.R.V RPPA level: 0.842 | Cdc6.R.V RPPA level: 0.862 | Cdc42.R.C RPPA level: 1.017 | Chk1.M.C RPPA level: 0.898 | Chk1_pS345.R.C RPPA level: 1.107 | Chk2_pT68.R.C RPPA level: 1.241 | Complex.II.Subunit.M.V RPPA level: 0.945 | Coup.TFII.R.C RPPA level: 0.941 | Cox2.R.C RPPA level: 1.267 | Cox.IV.R.V RPPA level: 0.997 | CtIP.R.V RPPA level: 0.950 | Cyclin.B1.R.V RPPA level: 1.134 | Cyclin.D3.M.V RPPA level: 0.840 | Cyclin.E1.R.V RPPA level: 0.959 | Cyclophilin.F.M.V RPPA level: 0.926 | D.a.Tubulin.R.V RPPA level: 1.029 | DAPK1_pS308.M.C RPPA level: 1.208 | DAPK2.R.C RPPA level: 1.003 | DDB.1.R.V RPPA level: 0.948 | DDR1.R.V RPPA level: 1.002 | DDR1_pY513.R.C RPPA level: 1.125 | DJ1.R.V RPPA level: 0.948 | DM.Histone.H3.R.V RPPA level: 2.021 | DM.K9.Histone.H3.M.V RPPA level: 1.447 | DNA.Ligase.IV.R.C RPPA level: 0.981 | DNA_POLG.R.V RPPA level: 1.025 | RPPA A.Raf.R.V: 1.015 | RPPA A.Raf_pS299.R.C: 1.034 | RPPA ACC1.R.C: 0.857 | RPPA ACLY_pS455.R.V: 1.046 | RPPA ACSL1.R.V: 0.954 | RPPA ACVRL1.R.C: 1.002 | RPPA ADAR1.M.V: 1.149 | RPPA ALKBH5.R.V: 1.061 | RPPA AMPK.a2_pS345.R.V: 1.050 | RPPA AMPKa.R.C: 1.055 | RPPA AMPKa_pT172.R.C: 2.324 | RPPA AR.R.V: 1.058 | RPPA ARID1A.R.C: 1.550 | RPPA ASNS.R.V: 0.982 | RPPA ATM.R.V: 0.922 | RPPA ATM_pS1981.R.V: 1.048 | RPPA ATP5A.M.C: 1.010 | RPPA ATR.R.V: 0.999 | RPPA ATRX.R.C: 1.085 | RPPA ATR_pS428.R.C: 1.058 | RPPA AceCS1.R.V: 0.988 | RPPA Akt1.R.V: 0.884 | RPPA Akt1_pS473.R.V: 1.015 | RPPA Akt2.R.V: 0.884 | RPPA Akt2_pS474.R.C: 1.034 | RPPA Akt.R.V: 0.924 | RPPA Akt_pS473.R.V: 0.837 | RPPA Ambra1_pS52.R.C: 1.060 | RPPA Annexin.I.M.V: 0.985 | RPPA Annexin.VII.M.V: 0.970 | RPPA Atg3.R.V: 0.967 | RPPA Atg4B.R.C: 0.915 | RPPA Atg5.R.C: 0.922 | RPPA Atg7.R.V: 0.846 | RPPA Aurora.A.R.C: 1.195 | RPPA Aurora.ABC_pT288_pT232_pT198.R.C: 0.954 | RPPA Aurora.B.R.V: 1.362 | RPPA Axl.R.V: 0.993 | RPPA B7.H3.R.C: 0.942 | RPPA B7.H4.R.C: 0.993 | RPPA B.Raf.R.C: 0.957 | RPPA BAP1.M.V: 0.964 | RPPA BCL2A1.R.V: 1.025 | RPPA BMK1.Erk5_pT218_Y220.R.V: 0.950 | RPPA BRCA1.M.C: 1.124 | RPPA BRD4.R.V: 1.303 | RPPA Bak.R.C: 1.033 | RPPA Bax.R.V: 1.025 | RPPA Bcl2.R.C: 1.107 | RPPA Bcl.xL.R.V: 1.064 | RPPA Beclin.R.C: 0.977 | RPPA BiP.GRP78.M.C: 0.989 | RPPA Bid.R.C: 0.971 | RPPA Bim.R.V: 1.023 | RPPA DNMT1.R.V: 0.908 | RPPA DRP1.R.V: 0.953 | RPPA DUSP4.R.V: 0.738 | RPPA DUSP6.R.C: 1.449 | RPPA DYRK1B.R.C: 1.005 | RPPA Dvl3.R.V: 1.056 | RPPA E2F1.R.V: 1.239 | RPPA E.Cadherin.R.V: 0.959 | RPPA EGFR.R.V: 1.079 | RPPA EGFR_pY1068.R.C: 0.971 | RPPA EMA.M.C: 0.929 | RPPA ENY2.M.C: 0.931 | RPPA ER.a.R.V: 0.988 | RPPA ER.a_pS118.R.V: 1.453 | RPPA ERCC1.R.C: 1.065 | RPPA ERCC5.R.C: 1.014 | RPPA ERRalpha.R.V: 1.009 | RPPA Elk1_pS383.R.C: 1.100 | RPPA Enolase.1.R.V: 0.939 | RPPA Enolase.2.R.V: 0.991 | RPPA EphA2.R.V: 0.816 | RPPA EphA2_pS897.R.C: 0.726 | RPPA EphA2_pY588.R.C: 1.016 | RPPA Erk5.R.V: 0.946 | RPPA Ets.1.R.V: 1.154 | RPPA FABP5.R.C: 1.025 | RPPA FAK.R.C: 1.003 | RPPA FAK_pY397.R.V: 1.007 | RPPA FANCD2.R.V: 0.924 | RPPA FASN.R.V: 0.845 | RPPA FGF.basic.R.C: 0.992 | RPPA FOXM1.R.V: 1.057 | RPPA FOXO3.R.V: 1.019 | RPPA FRS2.alpha_pY196.R.V: 1.009 | RPPA FTO.R.V: 0.977 | RPPA Fibronectin.R.V: 0.989 | RPPA FoxO3a_pS318_S321.R.C: 1.005 | RPPA G6PD.R.V: 0.983 | RPPA GATA6.R.V: 0.981 | RPPA GCLC.R.C: 0.993 | RPPA GCLM.R.V: 0.999 | RPPA GCN5L2.R.V: 1.002 | RPPA GRB2.R.V: 0.956 | RPPA GSK.3B.R.C: 0.901 | RPPA GSK.3a.b.M.V: 0.957 | RPPA GSK.3a.b_pS21_S9.R.V: 1.052 | RPPA Gli1.R.C: 0.953 | RPPA Gli3.R.C: 1.116 | RPPA Glucocorticoid.Receptor.R.V: 1.130 | RPPA Glutaminase.R.C: 1.024 | RPPA Grp75.R.C: 1.172 | RPPA Gys.R.V: 1.003 | RPPA Gys_pS641.R.V: 0.884 | RPPA H2AX_pS139.R.C: 1.441 | RPPA H2AX_pS140.M.C: 1.148 | RPPA HER2.M.V: 0.983 | RPPA HER2_pY1248.R.V: 1.026 | RPPA HER3.R.V: 0.916 | RPPA HER3_pY1289.R.C: 1.009 | RPPA HES1.R.V: 1.049 | RPPA Heregulin.R.V: 1.013 | RPPA X4E.BP1.R.V: 1.246 | RPPA X4E.BP1_pS65.R.V: 0.859 | RPPA X4E.BP1_pT37_T46.R.V: 0.868 | RPPA X14.3.3.zeta.R.V: 0.922 | RPPA X14.3.3βR.V: 1.078 | RPPA X14.3.3εM.C: 0.929 | RPPA X53BP1.R.V: 1.047 | RPPA b.Actin.R.C: 1.098 | RPPA b.Catenin.R.V: 0.957 | RPPA c.Abl.R.V: 1.129 | RPPA c.Abl_pY412.R.C: 1.034 | RPPA c.IAP2.R.C: 1.063 | RPPA eEF2K.R.V: 1.262 | RPPA eIF4E.R.V: 1.164 | RPPA eIF4E_pS209.R.V: 1.101 | RPPA eIF4G.R.C: 1.116 | RPPA level HLA.DQA1.R.V: 1.019 | RPPA level HLA.DR.DP.DQ.DX.R.C: 1.117 | RPPA level HNRNPK.R.V: 1.028 | RPPA level HSP27.M.C: 0.864 | RPPA level HSP60.R.V: 1.000
